From ChEMBL document CHEMBL1145507, “X-ray structural analysis of Plasmodium falciparum enoyl acyl carrier protein reductase as a pathway toward the optimization of triclosan antimalarial efficacy” (J Biol Chem, 2007)

Assays:
[1] = tested on: Plasmodium falciparum; test: Antimalarial activity against Plasmodium falciparum Dd2; format: functional, organism-based
[2] = tested on: Plasmodium falciparum; test: Antimalarial activity against Plasmodium falciparum 3D7 expressing katG; format: functional, organism-based
[3] = tested on: Plasmodium falciparum; test: Antimalarial activity against Plasmodium falciparum 3D7; format: functional, organism-based
[4] = tested on: Plasmodium falciparum; test: Antimalarial activity against Plasmodium falciparum Dd2 expressing katG; format: functional, organism-based
[5] = tested on: Plasmodium falciparum; test: Antimalarial activity against Plasmodium falciparum Dd2 by reduced [3H]hypoxanthine uptake; format: functional, organism-based
[6] = tested on: Plasmodium falciparum; test: Antimalarial activity against Plasmodium falciparum 3D7 by reduced [3H]hypoxanthine uptake; format: functional, organism-based
[7] = target: T1, Enoyl-acyl-carrier protein reductase (Plasmodium falciparum, UniProt Q965D5); test: Inhibition of Plasmodium falciparum ENR
T1 sequence (Q965D5 whole entry): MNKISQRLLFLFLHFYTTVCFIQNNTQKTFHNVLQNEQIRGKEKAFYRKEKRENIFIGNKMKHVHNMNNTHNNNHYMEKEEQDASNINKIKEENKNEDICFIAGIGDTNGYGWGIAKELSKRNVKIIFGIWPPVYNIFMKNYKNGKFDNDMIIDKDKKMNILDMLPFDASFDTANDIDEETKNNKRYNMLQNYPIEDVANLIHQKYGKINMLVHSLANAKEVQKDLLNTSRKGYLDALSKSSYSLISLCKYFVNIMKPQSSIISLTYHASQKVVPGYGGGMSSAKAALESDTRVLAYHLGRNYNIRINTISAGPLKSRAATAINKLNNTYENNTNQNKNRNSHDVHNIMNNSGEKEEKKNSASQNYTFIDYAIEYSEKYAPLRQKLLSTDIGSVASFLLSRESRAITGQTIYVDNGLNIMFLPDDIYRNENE

EC50 [5] [µM]	EC50 [6] [µM]	IC50 [7] [µM]	SMILES	IC50 [1] [µM]	IC50 [2] [µM]	IC50 [3] [µM]	IC50 [4] [µM]
			NNC(=O)c1ccncc1 [ISONIAZID]	1800	1200	1200	1800
14	10	0.2	Cc1ccc(Oc2ccc(Cl)cc2Cl)c(O)c1				
6.1	3.5	0.23	Cc1cccc(-c2ccc(Oc3ccc(Cl)cc3Cl)c(O)c2)c1				
3	2.5	0.21	CCCc1ccc(Oc2ccc(Cl)cc2Cl)c(O)c1				
6	4.6	0.11	CCc1ccc(Oc2ccc(Cl)cc2Cl)c(O)c1				
12	8.1	0.7	N#Cc1ccc(Oc2ccc(-c3ccccn3)cc2O)c(Cl)c1				
> 100	> 100	> 100	Oc1cc(-c2nn[nH]n2)ccc1Oc1ccc(Cl)cc1Cl				
13	7.5	0.64	Oc1cc(Cc2ccccn2)ccc1Oc1ccc(Cl)cc1Cl				
2.5	1.6	0.44	Cc1ccccc1-c1ccc(Oc2ccc(Cl)cc2Cl)c(O)c1				
3.1	2.1	0.038	Oc1cc(-c2ccc(F)cc2)ccc1Oc1ccc(Cl)cc1Cl				
3.2	3.5	0.48	CCCCc1ccc(Oc2ccc(Cl)cc2Cl)c(O)c1				
12	11	0.071	Oc1cc(Cc2ccccc2)ccc1Oc1ccc(Cl)cc1Cl				
3.3	2.6	0.41	Cc1ccccc1-c1ccc(Oc2ccc(C#N)cc2Cl)c(O)c1				
39	23	33	Oc1cc(-c2cccnc2)ccc1Oc1ccc(Cl)cc1Cl				
3.9	2.3	0.14	Oc1cc(-c2ccccc2)ccc1Oc1ccc(Cl)cc1Cl				
13	7.4	0.53	N#Cc1ccc(Oc2ccc(Cc3ccncc3)cc2O)c(Cl)c1				
22	19	0.049	N#Cc1ccc(Oc2ccc(Cl)cc2Cl)c(O)c1				
45	40	21	NC(=O)c1ccc(Oc2ccc(Cl)cc2Cl)c(O)c1				
4.3	2.9	0.19	Cc1ccc(-c2ccc(Oc3ccc(Cl)cc3Cl)c(O)c2)cc1				
11	6.9	0.84	Oc1cc(Cc2cccnc2)ccc1Oc1ccc(Cl)cc1Cl				
2.8	2	0.18	CC(C)Cc1ccc(Oc2ccc(Cl)cc2Cl)c(O)c1				
11	5.6	0.076	Oc1cc(CCc2ccccc2)ccc1Oc1ccc(Cl)cc1Cl				
8	7.4	0.12	CC(C)CCc1ccc(Oc2ccc(Cl)cc2Cl)c(O)c1				
4.8	3.4	0.53	Oc1cc(CC2CCCCC2)ccc1Oc1ccc(Cl)cc1Cl				
11	11	2.8	N#Cc1ccc(Oc2ccc(-c3ccncc3)cc2O)c(Cl)c1				
2.9	2	0.29	CCC(C)Cc1ccc(Oc2ccc(Cl)cc2Cl)c(O)c1 (configuration not stated)				
> 100	> 100	> 100	O=C(O)c1ccc(Oc2ccc(Cl)cc2Cl)c(O)c1				

SMILES	EC50 [5] [µM]	EC50 [6] [µM]	IC50 [7] [µM]	IC50 [1] [µM]	IC50 [2] [µM]	IC50 [3] [µM]	IC50 [4] [µM]
Oc1cc(Cl)ccc1Oc1ccc(Cl)cc1Cl [TRICLOSAN]	3.8	2.8					
Oc1cc(CCCc2ccccc2)ccc1Oc1ccc(Cl)cc1Cl	7.2	6.4	0.44				
